These results are taken from US12691114B2, “Compositions for inhibition of herpesviruses” (The Medical College of Wisconsin, Inc., priority 2020, dated 2026).

For experiment [1], the system named is HSV2 clinical isolate. Briefly: Plaque reduction assay, HSV2 in Vero cells. The format is cell-based, Human Herpesvirus 2. The conditions noted are these: plaque reduction. The source says: Viruses and antiviral assays: A recombinant pp28-luciferase Towne HCMV strain expressing luciferase under the control of the UL99 (pp28) late promoter was reported to provide a highly-sensitive and reproducible reporter for drug screening^20. A GCV-resistant HCMV pp28-luciferase that contains a C607Y mutation in UL97 was reported^37. The HCMV TB40 strain was obtained from ATCC (VR-1578). Clinical isolates of Human Herpesvirus 1 and 2 (HSV1, HSV2) were collected from the Johns Hopkins Microbiology laboratory without identifiers that could link them to a specific patient. Mouse CMV (MCMV) Smith strain (ATCC VR-1399) was used for infection of MEFs.
Plaque reduction assay: HFFs were seeded into 12-well plates (2×10^5 cells/well) and infected with HCMV TB40 at approximately 100 plaques/well. After 90 min, media were aspirated, and DMEM containing 0.5% carboxymethyl-cellulose (CMC), 4% fetal bovine serum (FBS), and drugs were added into duplicate wells. Following incubation at 37° C. for 10-12 days the overlay was removed, and plaques were counted after crystal violet staining. For HSV1 and HSV2 replication in Vero cells, the adsorption time was 60 min and plaques were counted after 36 h. Plaque assays in MEFs were completed after 3 days.
Inhibition of other herpesviruses: Inhibition of herpes simplex 1 and 2 (HSV1, HSV2), Epstein Barr virus (EBV) and mouse CMV (MCMV) was tested with the five compounds. Plaque reductions assays were used for HSV1, HSV2 and MCMV. Inhibition of lytic EBV replication was measured by real-time PCR in AKATA cells following IgG induction. Only MLS8554 was active against HSV1, HSV2 and MCMV (Table 2).
In general terms: Plaque reduction counts the foci of infection that form in a cell layer.

Experiment [2] concerns GCV-resistant HCMV Towne. Put plainly: Plaque reduction assay, GCV-resistant HCMV Towne in HFFs. The format is cell-based, human cytomegalovirus. The conditions noted are these: Human betaherpesvirus 5, read-out: EC50—GCVR Towne (μM).

Structures are written as SMILES.

As for `CCc1ccc(NC(=O)[C@H](Cc2c[nH]c3ccccc23)NC(=O)[C@@H]2Cc3ccccc3CN2)cc1` [MLS8554], the “activity against HSV2, in words” value in experiment [1] is given as “active”. Moreover, the EC50 (usually the concentration at which the effect is half-maximal) in experiment [1] (Vero cells, NA = Not active, read-out: EC50—HSV2-C1) worked out at 1300 ± 100 nM.
Consider `CC(C)NC(=O)C1CCN(C(=O)c2cc3sccc3n2Cc2ccc(Cl)cc2)CC1` [NCGC2955, 1-(4-(4-chlorobenzyl)-4H-thieno[3,2-b]pyrrole-5-carbonyl)-N-isopropylpiperidine-4-carboxamide], for which the EC50 in experiment [2] was 1.4 ± 0.2 µM.
